This is an account of results in PubChem BioAssay (NCI).

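Assay format: 96-well plates, 48-hour exposure. GI50 marks 50% less growth. TGI: total growth inhibition.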

Test systems include MCF7 breast; K-562 leukemia; MDA-MB-231 breast; OVCAR-3 ovarian; OVCAR-5 ovarian; KM12 colon; U251 CNS; M14 melanoma; NCI-H522 lung; HT29 colon; A498 renal.
Holding throughout (test): NCI-60 cell line screen, 48 h

Turning to `Cc1ccncc1.F[B-](F)(F)F.[Pt+2].c1ccc(-c2cccc(-c3ccccn3)n2)nc1`, the TGI is 25.7 µM in the test on MCF7 breast; over 100 µM with K-562 leukemia; over 100 µM in the test on MDA-MB-231 breast; over 44.3 µM with OVCAR-3 ovarian; 41.4 µM in the test on OVCAR-5 ovarian; 39.5 µM with KM12 colon. Also, the TGI was over 100 µM in the test with U251 CNS; 13.5 µM with M14 melanoma; 36.3 µM in the test with NCI-H522 lung; 27.9 µM in the test with HT29 colon; 45.1 µM in the test on A498 renal. In addition, in the test on OVCAR-3 ovarian, the GI50 is 0.835 µM.

For the molecule `C/C(=C\c1ccccn1)c1ccccn1`, the TGI with MCF7 breast, with K-562 leukemia, in the test on MDA-MB-231 breast, in the test with OVCAR-3 ovarian, in the test on OVCAR-5 ovarian and in the test on KM12 colon was over 100 µM throughout. For the same molecule, the TGI in the test with U251 CNS, in the test with M14 melanoma, in the test on NCI-H522 lung, with HT29 colon and in the test on A498 renal was over 100 µM each time.

With `Cc1cc(=O)n2nc(SCc3ccccc3)sc2n1`, the TGI with MCF7 breast, in the test on K-562 leukemia, in the test on MDA-MB-231 breast, in the test on OVCAR-3 ovarian, in the test with OVCAR-5 ovarian and in the test with KM12 colon was over 100 µM throughout. The TGI with U251 CNS, in the test on M14 melanoma, in the test on NCI-H522 lung, in the test on HT29 colon and in the test with A498 renal was over 100 µM each time.

As to `O=C(CCN1CCCC1)Nc1ccc2sc3ccccc3c(=O)c2n1`, the TGI in the test on MCF7 breast was 21.3 µM; with K-562 leukemia it was 21.3 µM; in the test on MDA-MB-231 breast it was 18.6 µM; in the test on OVCAR-3 ovarian, 20.5 µM; with OVCAR-5 ovarian, 19 µM; in the test with KM12 colon, 18.3 µM. Further, the TGI with U251 CNS was found to be 18.5 µM; with M14 melanoma it was 17.6 µM; with NCI-H522 lung, 15.2 µM; with HT29 colon, 6.37 µM; in the test with A498 renal, 33.7 µM.

For the molecule `COc1cccc(CC(C)NCC(O)c2ccc(O)c(O)c2)c1` (stereo not drawn), the TGI is over 100 µM in the test with MCF7 breast; over 100 µM with K-562 leukemia; 60.1 µM in the test with MDA-MB-231 breast; over 100 µM in the test with OVCAR-3 ovarian; 47.4 µM in the test on OVCAR-5 ovarian; over 100 µM with KM12 colon. Also, the TGI with U251 CNS, in the test with M14 melanoma, with NCI-H522 lung, with HT29 colon and in the test with A498 renal was over 100 µM throughout.

In the case of `CCOC(=O)c1c(CN2CCNCC2)nc2ccccc2c1-c1ccccc1`, the TGI in the test with MCF7 breast was determined as 28.1 µM; with K-562 leukemia, 27.2 µM; with MDA-MB-231 breast it was 29.3 µM; in the test with OVCAR-3 ovarian, 31.8 µM; in the test with OVCAR-5 ovarian it was 31.1 µM; in the test with KM12 colon it was 31.2 µM. Also, the TGI in the test with U251 CNS is 27.5 µM; with M14 melanoma it was 28.2 µM; with NCI-H522 lung, 29 µM; with HT29 colon, 17.8 µM; with A498 renal it was 28.3 µM.

Take `O=[N+]([O-])c1c(Br)cc(Br)c2c1Nc1c(ccc(Cl)c1Cl)S2`: the TGI with MCF7 breast came out at 17.9 µM; in the test with K-562 leukemia, 17.3 µM; in the test on MDA-MB-231 breast, 26.6 µM; with OVCAR-3 ovarian, 9.5 µM; in the test on OVCAR-5 ovarian, 33.7 µM; with KM12 colon, 20.5 µM. The TGI in the test on U251 CNS came out at 35.1 µM; with M14 melanoma, 23.6 µM; in the test with NCI-H522 lung, 20.5 µM; in the test on HT29 colon, 26 µM; with A498 renal, 39.1 µM.

`Cc1ccc(C(=O)N/N=C(\N=Nc2cccc(Cl)c2)c2ccc(N(CCC#N)CCC#N)cc2C)cc1`: the TGI in the test on MCF7 breast, in the test on K-562 leukemia, with MDA-MB-231 breast, in the test on OVCAR-3 ovarian, in the test on OVCAR-5 ovarian and in the test on KM12 colon was over 100 µM throughout. Moreover, the TGI in the test with U251 CNS, in the test on M14 melanoma, in the test with NCI-H522 lung, with HT29 colon and in the test on A498 renal was over 100 µM each time.

Take `CCNc1ccc2c(c1)Cc1ccccc1-2`: the TGI in the test on MCF7 breast, with K-562 leukemia, in the test on MDA-MB-231 breast, with OVCAR-3 ovarian, in the test on OVCAR-5 ovarian and in the test on KM12 colon was over 100 µM throughout. For the same molecule, the TGI with U251 CNS, in the test with M14 melanoma, with NCI-H522 lung, with HT29 colon and with A498 renal was over 100 µM in each case.

In the case of `NC(=S)N/N=C\c1ccc(OCc2cccc(COc3ccc(/C=N/NC(N)=S)cc3)n2)cc1`, the TGI in the test on MCF7 breast is over 100 µM; with K-562 leukemia, over 100 µM; with MDA-MB-231 breast, 76 µM; in the test with OVCAR-3 ovarian it was over 100 µM; with OVCAR-5 ovarian it was 52.1 µM; with KM12 colon, over 100 µM. Besides, the TGI with U251 CNS, in the test with M14 melanoma, with NCI-H522 lung, with HT29 colon and with A498 renal was over 100 µM throughout.

Consider `COC(=O)[C@H]1[C@@H](C(C)C)O[C@@H](C(C)C)O[C@H]1C(F)(F)F`, for which the TGI in the test with MCF7 breast, in the test with K-562 leukemia, in the test with MDA-MB-231 breast, with OVCAR-3 ovarian, with OVCAR-5 ovarian and with KM12 colon was over 100 µM throughout. For the same molecule, the TGI in the test with U251 CNS, with M14 melanoma, with NCI-H522 lung, in the test with HT29 colon and in the test with A498 renal was over 100 µM each time.

`C(=C\c1cccc(/C=C/c2ccccn2)n1)/c1ccccn1`: the TGI in the test on MCF7 breast, with K-562 leukemia, in the test with MDA-MB-231 breast, with OVCAR-3 ovarian, with OVCAR-5 ovarian and in the test with KM12 colon was over 100 µM each time. The TGI is over 100 µM in the test on U251 CNS; over 100 µM with M14 melanoma; 28.8 µM with NCI-H522 lung; over 100 µM in the test on HT29 colon; 71.7 µM in the test with A498 renal.
